By Kd is commonly meant the constant that tells how readily two partners part at equilibrium. Read a high Kd as lower affinity. In general, IC50 refers to the concentration needed to halve the response being measured. Low readings indicate greater potency in that assay, high ones weaker potency in that assay.

Active and inactive are the calls of the source. The rule behind the calls is not given here.

This is an account of results in ChEMBL document CHEMBL4312031, “Discovery of candesartan cilexetic as a novel neddylation inhibitor for suppressing tumor growth” (Eur J Med Chem, 2020).

Data set [1] has as its target T1, NEDD8/Cullin-1 (Homo sapiens) (UniProt Q13616+Q15843). Description: Inhibition of Nedd8-cullin1 (unknown origin) adduct formation assessed as decrease in cullin1 neddylation at 50 uM preincubated for 10 mins followed by ATP addition and measured after 30 mins by immunoblot analysis. The format is protein assay. (A western blot detects proteins with antibodies after separation by electrophoresis.)

Data set [2] concerns the target T1, NEDD8/Cullin-1 (Homo sapiens). Description: Inhibition of Nedd8-cullin1 adduct formation in human A549 cells assessed as decrease in cullin1 neddylation at 100 uM incubated for 6 to 12 hrs by Western blot analysis. It counts as cell-based.
For data set [3] the target is unchanged. Description: Inhibition of Nedd8-cullin1 adduct formation in human A549 cells assessed as decrease in cullin1 neddylation at 60 to 80 uM measured after 6 hrs by Western blot analysis. The format is cell-based.
Target sequence in this assay (Q13616 whole entry, looked up): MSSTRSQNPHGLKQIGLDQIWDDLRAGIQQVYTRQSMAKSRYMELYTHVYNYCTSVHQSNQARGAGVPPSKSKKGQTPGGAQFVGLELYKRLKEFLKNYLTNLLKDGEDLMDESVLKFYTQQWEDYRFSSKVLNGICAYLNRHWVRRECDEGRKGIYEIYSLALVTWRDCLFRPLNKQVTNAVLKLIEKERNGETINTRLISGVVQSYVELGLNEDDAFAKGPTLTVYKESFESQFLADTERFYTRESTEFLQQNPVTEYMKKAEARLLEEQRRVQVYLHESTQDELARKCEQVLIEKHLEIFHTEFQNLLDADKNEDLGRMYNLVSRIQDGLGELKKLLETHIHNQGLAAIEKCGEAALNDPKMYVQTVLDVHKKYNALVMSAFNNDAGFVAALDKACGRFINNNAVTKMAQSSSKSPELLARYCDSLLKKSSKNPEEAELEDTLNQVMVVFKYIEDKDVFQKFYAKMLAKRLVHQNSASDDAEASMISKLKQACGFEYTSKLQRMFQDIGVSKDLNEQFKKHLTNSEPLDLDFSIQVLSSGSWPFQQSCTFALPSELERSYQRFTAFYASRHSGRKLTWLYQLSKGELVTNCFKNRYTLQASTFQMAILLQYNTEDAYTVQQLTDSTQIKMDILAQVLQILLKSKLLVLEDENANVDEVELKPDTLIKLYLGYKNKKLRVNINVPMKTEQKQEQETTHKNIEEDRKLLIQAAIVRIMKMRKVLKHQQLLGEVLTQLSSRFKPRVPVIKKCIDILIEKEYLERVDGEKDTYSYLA
Target sequence in this assay (Q15843 whole entry, looked up): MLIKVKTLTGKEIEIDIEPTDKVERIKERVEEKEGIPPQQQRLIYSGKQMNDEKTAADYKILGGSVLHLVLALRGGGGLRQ
The target is the same in data set [4]. The experiment in a line: Inhibition of Nedd8-cullin1 adduct formation in human A549 cells assessed as decrease in cullin1 neddylation at 75 uM measured after 6 hrs by Western blot analysis. The format is cell-based.
Target sequence in this assay (Q13616 whole entry, looked up): as the sequence (Q13616 whole entry, looked up) above
Target sequence in this assay (Q15843 whole entry, looked up): as the sequence (Q15843 whole entry, looked up) above
For data set [5] the target is unchanged. The experiment in a line: Inhibition of Nedd8-cullin1 adduct formation in human A549 cells assessed as decrease in cullin1 neddylation at 50 uM measured after 6 hrs by Western blot analysis. The format is cell-based.
Target sequence in this assay (Q13616 whole entry, looked up): as the sequence (Q13616 whole entry, looked up) above
Target sequence in this assay (Q15843 whole entry, looked up): as the sequence (Q15843 whole entry, looked up) above
The target of another data set is T2, NEDD8 activating enzyme (Homo sapiens, UniProt Q8TBC4).
T2 sequence (Q8TBC4 whole entry): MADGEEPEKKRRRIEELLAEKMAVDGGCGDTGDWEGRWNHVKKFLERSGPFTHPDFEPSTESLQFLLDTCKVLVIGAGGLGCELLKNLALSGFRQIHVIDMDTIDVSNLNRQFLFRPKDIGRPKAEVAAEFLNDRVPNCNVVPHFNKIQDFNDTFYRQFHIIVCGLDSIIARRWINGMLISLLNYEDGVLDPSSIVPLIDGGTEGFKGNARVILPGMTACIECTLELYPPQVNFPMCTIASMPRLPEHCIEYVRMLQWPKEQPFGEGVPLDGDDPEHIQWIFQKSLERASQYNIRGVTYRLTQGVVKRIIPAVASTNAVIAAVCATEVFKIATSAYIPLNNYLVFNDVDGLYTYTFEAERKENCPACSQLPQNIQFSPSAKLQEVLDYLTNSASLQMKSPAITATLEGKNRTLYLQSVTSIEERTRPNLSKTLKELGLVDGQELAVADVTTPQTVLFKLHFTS
T2 sequence (Q13564 whole entry): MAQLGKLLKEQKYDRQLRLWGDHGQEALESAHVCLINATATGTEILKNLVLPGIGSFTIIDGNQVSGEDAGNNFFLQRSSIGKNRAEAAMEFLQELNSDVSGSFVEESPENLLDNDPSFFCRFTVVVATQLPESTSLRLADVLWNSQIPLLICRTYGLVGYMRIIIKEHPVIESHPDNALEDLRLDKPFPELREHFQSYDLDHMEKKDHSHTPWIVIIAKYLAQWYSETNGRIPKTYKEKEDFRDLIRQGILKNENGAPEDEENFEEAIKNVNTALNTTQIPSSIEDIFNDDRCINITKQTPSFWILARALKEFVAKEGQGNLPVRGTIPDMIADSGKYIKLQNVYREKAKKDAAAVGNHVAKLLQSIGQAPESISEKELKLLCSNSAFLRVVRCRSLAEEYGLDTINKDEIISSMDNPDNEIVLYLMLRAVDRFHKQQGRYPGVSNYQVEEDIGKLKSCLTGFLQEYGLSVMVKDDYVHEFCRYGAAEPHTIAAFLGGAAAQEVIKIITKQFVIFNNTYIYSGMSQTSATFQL
Description: Binding affinity to biotin-labeled GST-tagged NAE (unknown origin) incubated for 1 hr by SPR assay. It counts as protein-complex assay. For orientation: In SPR one partner is held on a chip, and binding of the other changes the refractive index at the surface.

The nature of data set [6]: Toxicity in nude mouse xenografted with human A549 cells assessed as effect on body weight at 30 to 60 mg/kg, ip qd measured every 2 days. The following applies: in vivo, 48 h. The format is organism-based. (Xenograft models place foreign cells or tissue in a host animal.)
Data set [7] relates to EKVX. The experiment in a line: Antiproliferative activity against human EKVX cells measured after 48 hrs by CCK8 assay. The format is functional, cell-based.
The test system of data set [8] is NCI-H1299. The experiment in a line: Antiproliferative activity against human H1299 cells measured after 48 hrs by CCK8 assay. The format is functional, cell-based. The following applies: NCI-H1299, 48 h.
Data set [9] deals with HepG2. Description: Antiproliferative activity against human HepG2 cells measured after 48 hrs by CCK8 assay. It counts as functional, cell-based. The note with it: HepG2, 48 h.
For data set [10], the system named is Huh-7. The experiment in a line: Antiproliferative activity against human HuH7 cells measured after 48 hrs by CCK8 assay. The format is functional, cell-based. The following applies: Huh-7, 48 h.
The subject of data set [11] is T47D. The experiment in a line: Antiproliferative activity against human T47D cells measured after 48 hrs by CCK8 assay. It counts as functional, cell-based.
Data set [12] has as its system MCF7. Description: Antiproliferative activity against human MCF7 cells measured after 48 hrs by CCK8 assay. It counts as functional, cell-based. The following applies: MCF7, 48 h.
Data set [13] deals with MKN-45. The experiment in a line: Antiproliferative activity against human MKN45 cells measured after 48 hrs by CCK8 assay. It counts as functional, cell-based. The following applies: MKN-45, 48 h.
In data set [14] the test system is MGC-803. Description: Antiproliferative activity against human MGC803 cells measured after 48 hrs by CCK8 assay. The note with it: MGC-803, 48 h. It counts as functional, cell-based.
The test system of data set [15] is PLC. The experiment in a line: Antiproliferative activity against human PLC cells measured after 48 hrs by CCK8 assay. It counts as functional, cell-based.
Data set [16] relates to EKVX. Description: Antiproliferative activity against human EKVX cells measured after 72 to 96 hrs by CCK8 assay. It counts as functional, cell-based.
The subject of data set [17] is NCI-H1299. Description: Antiproliferative activity against human H1299 cells measured after 72 to 96 hrs by CCK8 assay. It counts as functional, cell-based.
The subject of data set [18] is HepG2. The experiment in a line: Antiproliferative activity against human HepG2 cells measured after 72 to 96 hrs by CCK8 assay. It counts as functional, cell-based.
Data set [19] has as its system Huh-7. The experiment in a line: Antiproliferative activity against human HuH7 cells measured after 72 to 96 hrs by CCK8 assay. The format is functional, cell-based.
For data set [20], the system named is T47D. The experiment in a line: Antiproliferative activity against human T47D cells measured after 72 to 96 hrs by CCK8 assay. It counts as functional, cell-based.
Data set [21] concerns MCF7. Description: Antiproliferative activity against human MCF7 cells measured after 72 to 96 hrs by CCK8 assay. It counts as functional, cell-based.
Data set [22] deals with MKN-45. Description: Antiproliferative activity against human MKN45 cells measured after 72 to 96 hrs by CCK8 assay. It counts as functional, cell-based.
The subject of data set [23] is MGC-803. Description: Antiproliferative activity against human MGC803 cells measured after 72 to 96 hrs by CCK8 assay. It counts as functional, cell-based.
The test system of data set [24] is PLC. The experiment in a line: Antiproliferative activity against human PLC cells measured after 72 to 96 hrs by CCK8 assay. It counts as functional, cell-based.
The test system of data set [25] is A549. Description: Antitumor activity against human A549 cells xenografted in nude mouse assessed as decrease in tumor weight at 60 mg/kg, ip qd measured after 22 days. It counts as functional, organism-based.
Data set [26] relates to A549. The experiment in a line: Antitumor activity against human A549 cells xenografted in nude mouse assessed as decrease in tumor size at 60 mg/kg, ip qd measured after 22 days. The format is functional, organism-based.
For data set [27], the target named is T1, NEDD8/Cullin-1 (Homo sapiens). Description: Inhibition of Nedd8-cullin1 (unknown origin) adduct formation assessed as decrease in cullin1 neddylation at 10 uM preincubated for 10 mins followed by ATP addition and measured after 30 mins by immunoblot analysis. The format is protein assay.
Target sequence in this assay (Q13616 whole entry, looked up): as the sequence (Q13616 whole entry, looked up) above
Target sequence in this assay (Q15843 whole entry, looked up): as the sequence (Q15843 whole entry, looked up) above
Data set [28] in a line: Toxicity in nude mouse xenografted with human A549 cells assessed as effect on body weight at 60 mg/kg, ip qd measured every 2 days. It counts as organism-based. The following applies: in vivo, 48 h.

As to `CCCCCCCCCCCCCCCC[n+]1ccccc1`, in data set [1], the inhibition entry is “Active”. For the same compound, the inhibition entry in data set [2] was “inactive”.
Turning to `CN1CCN(CCCN2c3ccccc3Sc3ccc(C(F)(F)F)cc32)CC1`, the inhibition entry in data set [1] is “Active”. Besides, the inhibition result in data set [2] was “inactive”.
As for `Clc1ccc(CCNC2CCN(Cc3ccccc3)CC2)c(Cl)c1`, the inhibition entry in data set [3] is “Active”.
Consider `O=C1c2c(O)ccc(O)c2C(=O)c2c(NCCNCCO)ccc(NCCNCCO)c21`, for which the inhibition result in data set [4] was “Active”. For the same compound, the inhibition entry in [5] is “inactive”.
With `CCOc1nc2cccc(C(=O)OC(C)OC(=O)OC3CCCCC3)c2n1Cc1ccc(-c2ccccc2-c2nnn[nH]2)cc1` (stereo not drawn) [CANDESARTAN CILEXETIL], the equilibrium dissociation constant (Kd) on NEDD8 activating enzyme worked out at 195 µM. Also, the Activity result in data set [6] is “Non-Toxic”.
Consider `NS(=O)(=O)OC[C@@H]1C[C@@H](n2ccc3c(N[C@H]4CCc5ccccc54)ncnc32)C[C@@H]1O` [PEVONEDISTAT], for which the IC50 in the data set with EKVX [7], in the data set with NCI-H1299 [8], in the data set on HepG2 [9], in the data set on Huh-7 [10], in the data set on T47D [11] and in the data set on MCF7 [12] was over 10 µM in each case. Further, the IC50 in the data set with MKN-45 [13] was over 10 µM; in the data set on MGC-803 [14], over 10 µM; in the data set on PLC [15], over 10 µM; in the data set on EKVX [16] it was 0.3 to 1.2 µM; in the data set on NCI-H1299 [17], 0.3 to 1.2 µM; in the data set on HepG2 [18] it was 0.3 to 1.2 µM. Besides, the half-maximal inhibitory concentration (IC50) with Huh-7 [19], in the data set with T47D [20], with MCF7 [21], in the data set with MKN-45 [22], in the data set with MGC-803 [23] and with PLC [24] was 0.3 to 1.2 µM each time. Moreover, the result in the data set with A549 [25] and with A549 [26] was Active. Also, the inhibition result in data set [27] was “Active”. Further, in data set [28], the Activity entry was “Non-Toxic”.
As to BISMUTH SUBCITRATE POTASSIUM, in data set [1], the inhibition entry was “Active”. Besides, the inhibition result in data set [2] is “inactive”.
